# Patent US20200024278A1, “COMPOSITION COMPRISING ANTIBIOTIC COMPOUND AND AN HETEROCYCLIC COMPOUND AND THEIR USE IN PREVENTING OR TREATING BACTERIAL INFECTIONS” (MUTABILIS, priority 2016, published 2020)
# What was measured:
# Experiment in all cases: MIC, broth microdilution (CLSI), substance alone or ATB combined with compound at 4 or 8 μg/mL
# PAE 105250 = type: cell-based, P. aeruginosa; conditions: PAE 105250; for MIC ATB combined with compound: compound @4 μg/ml
# Procedure, shortened: (§1)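 Growth inhibition endpoint, read visually after 16-20 h at 35° C in ambient air. Cation-adjusted Mueller-Hinton broth, inoculum 5·10^5 CFU/mL, CLSI M7-A7 protocol.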
# PAE UFR48 = type: cell-based, P. aeruginosa; conditions: PAE UFR48; for MIC ATB combined with compound: compound @4 μg/ml
# Procedure, shortened: as §1
# PAE UFR90 = type: cell-based, P. aeruginosa; conditions: PAE UFR90; for MIC ATB combined with compound: compound @4 μg/ml
# Procedure, shortened: as §1
# ECO 190317 = type: cell-based, E. coli; conditions: Escherichia coli; substance alone; ECO 190317; read-out: MIC
# Procedure, shortened: as §1
# ECO UFR39 = type: cell-based, E. coli; conditions: Escherichia coli; substance alone; ECO UFR39; read-out: MIC
# Procedure, shortened: as §1
# ECL P99 = type: cell-based, E. cloacae; conditions: Enterobacter cloacae; substance alone; ECL P99; read-out: MIC
# Procedure, shortened: as §1
# ABA UFR152 = type: cell-based, A. baumannii; conditions: Acinetobacter baumannii, substance alone, read-out: MIC
# Method: (§2) Compounds of the present invention were assessed against genotyped bacterial strains alone or in combination with an antibacterial. In the assays, MICs of said compounds or combination of antibiotics with fixed concentrations of said compounds (4 or 8 μg/mL) were determined by the broth microdilution method according to the Clinical Laboratory Standards Institute (CLSI-M7-A7). Briefly, compounds alone according to the invention were prepared in DMSO and spotted (2 μL each) on sterile polystyrene plates (Corning, 3788). Combinations of compounds and antibiotics dilutions were prepared in DMSO and spotted (1 μL each) on sterile polystyrene plates (Corning, 3788). Log phase bacterial suspensions were adjusted to a final density of 5·10^5 CFU/mL in cation-adjusted Mueller-Hinton broth (ca-MHB; Becton-Dickinson and Company) and added to each well (98 μL). Assays including Fosfomycin were supplemented with 25 μg/ml of Glucose-6-phosphate. Microplates were incubated for 16-20 h at 35° C. in ambient air. The MIC of the compounds was defined as the lowest concentration of said compounds that prevented bacterial growth as read by visual inspection. The MIC of ATB at each compound concentration was defined as the lowest concentration of ATB that prevented bacterial growth as read by visual inspection.
# ABA UFR156 = type: cell-based, A. baumannii; conditions: Acinetobacter baumannii, substance alone, read-out: MIC
# Method: as §2
# SPN 49619 = type: cell-based, S. pneumoniae; conditions: SPN 49619; for MIC ATB combined with compound: compound @4 μg/ml
# Procedure, shortened: as §1
# SAU 29213 = type: cell-based, S. aureus; conditions: for MIC ATB combined with compound: compound @4 μg/ml, SAU 29213
# Procedure, shortened: as §1
# KPN BAA-1898 = type: cell-based, K. pneumoniae; conditions: Klebsiella pneumoniae, BAA1898; substance alone; KPN BAA-1898; read-out: MIC
# Procedure, shortened: as §1
# KPN UFR42 = type: cell-based, K. pneumoniae; conditions: Klebsiella pneumoniae; substance alone; KPN UFR42; read-out: MIC
# Procedure, shortened: as §1
# [1] = Pseudomonas aeruginosa, substance alone, read-out: MIC
structure (smiles),measurement,setting,value
"NCCON=C1C[C@@H](C(N)=O)N2C[C@@H]1N(OS(=O)(=O)[O-])C2=O.[Na+] [Example 2, sodium and 2,2,2-trifluoroacetate [(2S,5S)-4-(2-ammonium-ethoxyimino)-2-carbamoyl-7-oxo-1,6-diazabicyclo[3.2.1]octan-6-yl] sulfate]",MIC ATB combined with compound,PAE 105250; ATB ATM,8 µg/mL
same,MIC ATB combined with compound,PAE 105250; ATB FEP,4 µg/mL
same,MIC ATB combined with compound,PAE 105250; ATB FOS,>128 µg/mL
same,MIC ATB combined with compound,PAE 105250; ATB MEM,2 µg/mL
same,MIC ATB combined with compound,PAE 105250; ATB PIP,>32 µg/mL
same,MIC,PAE 105250; [1],> 32 µg/mL
same,MIC ATB combined with compound,PAE UFR48; ATB ATM,8 µg/mL
same,MIC ATB combined with compound,PAE UFR48; ATB FEP,32 µg/mL
same,MIC ATB combined with compound,PAE UFR48; ATB FOS,16 µg/mL
same,MIC ATB combined with compound,PAE UFR48; ATB MEM,4 µg/mL
same,MIC ATB combined with compound,PAE UFR48; ATB PIP,128 µg/mL
same,MIC,PAE UFR48; [1],64 µg/mL
same,MIC ATB combined with compound,PAE UFR90; ATB ATM,16 µg/mL
same,MIC ATB combined with compound,PAE UFR90; ATB FEP,8 µg/mL
same,MIC ATB combined with compound,PAE UFR90; ATB FOS,4 µg/mL
same,MIC ATB combined with compound,PAE UFR90; ATB MEM,1 µg/mL
same,MIC ATB combined with compound,PAE UFR90; ATB PIP,>32 µg/mL
same,MIC,PAE UFR90; [1],> 128 µg/mL
same,MIC,ECO 190317,4 µg/mL
same,MIC,ECO UFR39,4 µg/mL
same,MIC,ECL P99,16 µg/mL
same,MIC,ABA UFR152,> 32 µg/mL
same,MIC,ABA UFR156,> 32 µg/mL
same,MIC ATB combined with compound,SPN 49619; ATB ATM,>32 µg/mL
same,MIC ATB combined with compound,SPN 49619; ATB FEP,0.063 µg/mL
same,MIC ATB combined with compound,SPN 49619; ATB FOS,16 µg/mL
same,MIC ATB combined with compound,SPN 49619; ATB MEM,0.063 µg/mL
same,MIC ATB combined with compound,SPN 49619; ATB PIP,0.5 µg/mL
same,MIC,"SPN 49619; Streptococcus pneumoniae, substance alone, read-out: MIC",> 32 µg/mL
same,MIC ATB combined with compound,SAU 29213; ATB ATM,>32 µg/mL
same,MIC ATB combined with compound,SAU 29213; ATB FEP,4 µg/mL
same,MIC ATB combined with compound,SAU 29213; ATB FOS,0.5 µg/mL
same,MIC ATB combined with compound,SAU 29213; ATB MEM,0.125 µg/mL
same,MIC ATB combined with compound,SAU 29213; ATB PIP,1 µg/mL
same,MIC,"SAU 29213; Staphylococcus aureus, substance alone, SAU 29213 (MSSA 29213), read-out: MIC",> 32 µg/mL
same,MIC,KPN BAA-1898,> 32 µg/mL
same,MIC,KPN UFR42,> 32 µg/mL
